Source: patent US7863449B2, “Modulators of muscarinic receptors” (Vertex Pharmaceuticals Incorporated, priority 2004, dated 2011)

How the values were obtained:
M4 muscarinic receptor = biological target: T1, M4 muscarinic receptor (Homo sapiens, UniProt P08173); test: Functional mobilization of intracellular calcium (FLIPR), M4-CHO cells; assay type: cell-based; settings: for Emax: 100% efficacy is the maximum response obtained using Carbachol as a control; for M4 Activity: M4-CHO cells, FLIPR calcium mobilization
T1 construct: expressed in transfected cells; host or cells: CHO (M4-CHO)
T1 sequence (P08173 1-479): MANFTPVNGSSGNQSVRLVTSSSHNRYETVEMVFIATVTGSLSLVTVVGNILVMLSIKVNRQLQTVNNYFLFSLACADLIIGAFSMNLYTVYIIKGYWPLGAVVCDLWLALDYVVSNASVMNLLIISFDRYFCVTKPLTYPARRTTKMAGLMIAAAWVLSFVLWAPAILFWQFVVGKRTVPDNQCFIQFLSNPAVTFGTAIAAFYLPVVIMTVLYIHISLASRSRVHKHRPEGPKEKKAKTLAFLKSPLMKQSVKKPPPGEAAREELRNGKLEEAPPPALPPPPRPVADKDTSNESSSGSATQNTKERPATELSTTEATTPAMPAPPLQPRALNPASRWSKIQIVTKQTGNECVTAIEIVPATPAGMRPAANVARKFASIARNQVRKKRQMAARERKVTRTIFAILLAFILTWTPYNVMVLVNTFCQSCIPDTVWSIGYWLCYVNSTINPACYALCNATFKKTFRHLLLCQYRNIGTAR
Description: (§1) Functional Mobilization of Intracellular Calcium to Determine Muscarinic Receptor Activity:
(§2) CHO cells expressing muscarinic receptors (M1 to M5) are grown as monolayers in tissue culture flasks at 37° C. in a humidified atmosphere containing 5% CO2 and passaged every 3-5 days. The growth media is Dulbecco's modified eagles medium (DMEM, Gibco Cat# 12430-054), containing 25 mM Hepes and supplemented with Fetal Bovine Serum (Hyclone, cat# SH30071.03), 0.1 mM of MEM non-essential amino acids (GIBCO, Cat# 11140-050), 1 mM MEM Sodium Pyruvate (GIBCO Cat# 11360-070) and 100 units/ml of Penicillin G and 100 μg/ml of Streptomycin (GIBCO Cat# 15140-122). The recombinant muscarinic receptor cell lines are grown under antibiotic pressure with media containing 25 μg/ml zeocin and 500 μg/ml G418 (M1-CHO), 4 μg/ml puromycin, 50 μg/ml zeocin and 2.5 μg/ml blasticidin (M2 and M4-CHO) or 50 μg/ml zeocin and 4 μg/ml puromycin (M3 and M5-CHO).
(§3) Cells are harvested at 80-90% confluence using Versene (GIBCO Cat# 15040-066), collected by centrifugation and seeded 18-24 hrs prior to running the calcium assay at a density of 5,000-10,000 cells/well in […], clear-bottomed 384-well plates (BD Biocoat, poly-D-lysine, Cat#356663). The day of the experiment, the cells are washed with a plate washer (Bioteck Instruments, ELX 405) using bath1 buffer (140-mM NaCl, 4.5-mM KCl, 2-mM CaCl2, 1-mM MgCl2, 10-mM Hepes-Na, 10-mM Glucose, pH 7.4, with NaOH) containing 1 mM Probenecid. Next, the calcium dye Fluo-3 (25 μl/well of Fluo-3 AM at 4 μM, Molecular Probes F-1241, in Bath 1 buffer containing 1 mM Probenecid) is added to the 25 μl of Bath 1 remaining in each well after the plate wash and the dye is loaded at 37° C. in the tissue culture incubator for 60-90 min. The fluorescent dye is removed using the plate washer with Bath 1 containing 1 mM Probenecid, leaving 25 μl/well of this solution after the wash. Alternatively, cells can be loaded with the calcium indicator from Molecular Devices (Calcium 3 Assay Reagents, Cat # R7181) adding 5 μl of a 5× solution dye in Bath 1 containing 1 mM Probenecid (10 ml per dye flask cat# R7182 to generate a solution 20×) to 20 μl of the same buffer. After loading for 60 min, the experiment can be run without having to remove the dye.
(§4) Compounds are prepared at a 2× fold concentration in a 96-well plate (round bottom, Costar Corning cat# 3656), by reconstituting the pre-spotted compounds in bath 1 containing 1 mM probenecid. The final concentration DMSO is 0.5%, and the amount of DMSO is normalized across the assay plate. To determine an agonist action of the compounds on muscarinic receptors, the reconstituted compounds are added (25 μl compound/well) to the cell assay plate (containing 25 μl/well) using the multi-channel robotic system of the FLIPR 3 Instrument (Molecular Devices, Sunnyvale, Calif.). To determine a functional inhibitory action of the compounds on muscarinic receptors, the reconstituted compounds are added (25 μl compound/well) to the assay plate and pre-incubated for 15 min prior to adding 25 μl of Carbachol at 3× the EC80 for each muscarinic subtype. Alternatively, the compounds can be co-applied simultaneously with the agonist. In both assay modes, the fluorescence is recorded for 60 sec (excitation wavelength is […] and emission wavelength 540 nm) using the FLIPR 3 instrument.
(§5) The potency, efficacy and selectivity of the muscarinic compounds were evaluated by screening the compound activity across the whole family (M1 to M5 cells). Compounds were also screened for activity on other proteins such as other GPCRs and ion channels to determine selectivity on M4 receptors.

M1 muscarinic receptor = biological target: T2, M1 muscarinic receptor (Homo sapiens, UniProt P11229); test: Functional mobilization of intracellular calcium (FLIPR), M1-CHO cells; assay type: cell-based; settings: for Emax: 100% efficacy is the maximum response obtained using Carbachol as a control; for M1 Activity: M1-CHO cells, FLIPR calcium mobilization
T2 construct: expressed in transfected cells; host or cells: CHO (M1-CHO)
T2 sequence (P11229 1-460): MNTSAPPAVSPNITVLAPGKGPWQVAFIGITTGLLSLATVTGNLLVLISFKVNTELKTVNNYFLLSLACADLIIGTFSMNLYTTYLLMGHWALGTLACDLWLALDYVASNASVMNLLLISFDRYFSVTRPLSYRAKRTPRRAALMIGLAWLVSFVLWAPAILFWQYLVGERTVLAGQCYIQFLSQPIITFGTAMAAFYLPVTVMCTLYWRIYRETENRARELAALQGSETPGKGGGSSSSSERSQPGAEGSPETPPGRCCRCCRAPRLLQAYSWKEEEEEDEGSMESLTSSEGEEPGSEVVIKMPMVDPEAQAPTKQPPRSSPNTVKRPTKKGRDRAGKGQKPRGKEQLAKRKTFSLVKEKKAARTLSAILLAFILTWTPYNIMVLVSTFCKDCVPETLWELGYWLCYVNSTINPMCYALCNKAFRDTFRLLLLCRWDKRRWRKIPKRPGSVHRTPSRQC
Description: as §1, §2, §3, §4, §5

Row | Structure (SMILES) | Emax (M4 muscarinic receptor) [%] | M4 Activity (M4 muscarinic receptor) | Emax (M1 muscarinic receptor) [%] | M1 Activity (M1 muscarinic receptor)
1 | CCOC(=O)N1CCC(N2CCC3(CC2)c2ccccc2C(=O)N3Cc2ccccc2)CC1 [compound 20, ethyl 4-(2-benzyl-3-oxospiro[isoindoline-1,4′-piperidine]-1′-yl)piperidine-1-carboxylate] | < 25 | + (activity was measured to be greater than 5.0 μM) | 25 to 100 | ++ (activity was measured to be from 1.0 μM to 5.0 μM)
2 | CC(=O)N1Cc2ccccc2C2(CCN(C3CC4CCC(C4)C3)CC2)C1 (stereo not shown) [compound 21] | 25 to 100 | + (activity was measured to be greater than 5.0 μM) | 25 to 100 | + (activity was measured to be greater than 5.0 μM)
3 | CCOC(=O)N1CCC(CN2CCC3(CC2)CN(C(=O)OCCOC)Cc2ccccc23)CC1 [compound 22] | 25 to 100 | +++ (activity was measured to be less than 1.0 μM) | 25 to 100 | +++ (activity was measured to be less than 1.0 μM)
4 | CCOC(=O)N1CCC(N2CCC3(CC2)CN(C(=O)OCCOC)Cc2ccccc23)CC1 [compound 23] | 25 to 100 | +++ (activity was measured to be less than 1.0 μM) | 25 to 100 | +++ (activity was measured to be less than 1.0 μM)
5 | CCCS(=O)(=O)N1Cc2ccccc2C2(CCN(C3CC4CCC(C3)N4C(=O)O[C@@H]3CCOC3)CC2)C1 (stereo partly shown) [compound 24] | 25 to 100 | +++ (activity was measured to be less than 1.0 μM) | 25 to 100 | +++ (activity was measured to be less than 1.0 μM)
6 | CCOC(=O)N1CCC(N2CCC3(CC2)CN(S(=O)(=O)c2c(C)noc2C)Cc2ccccc23)CC1 [compound 25] | 25 to 100 | +++ (activity was measured to be less than 1.0 μM) | 25 to 100 | +++ (activity was measured to be less than 1.0 μM)
7 | CCOC(=O)N1C2CCC1CC(N1CCC3(CC1)CN(C(=O)OC1CCC1)Cc1ccccc13)C2 (stereo not shown) [compound 27] | 25 to 100 | +++ (activity was measured to be less than 1.0 μM) | 25 to 100 | +++ (activity was measured to be less than 1.0 μM)
8 | CC(=O)N1Cc2ccccc2C2(CCN(C3CCN(C(=O)O[C@@H]4CCOC4)CC3)CC2)C1 [compound 32] | 25 to 100 | +++ (activity was measured to be less than 1.0 μM) | 25 to 100 | +++ (activity was measured to be less than 1.0 μM)
9 | CC(=O)N1Cc2ccccc2C2(CCN(CC3CCCCC3)CC2)C1 [compound 35] | < 25 | ++ (activity was measured to be from 1.0 μM to 5.0 μM) | < 25 | + (activity was measured to be greater than 5.0 μM)
10 | COc1ccc(CN2CCC3(CC2)CN(C(C)=O)Cc2ccccc23)cn1 [compound 37] | < 25 | + (activity was measured to be greater than 5.0 μM) | 25 to 100 | + (activity was measured to be greater than 5.0 μM)
11 | CC(=O)N1Cc2ccccc2C2(CCN(Cc3ccccn3)CC2)C1 [compound 40] | < 25 | + (activity was measured to be greater than 5.0 μM) | < 25 | + (activity was measured to be greater than 5.0 μM)
12 | Cc1ccc2c(c1)C1(CCN(CC3CCOCC3)CC1)OC2=O [compound 41] | < 25 | + (activity was measured to be greater than 5.0 μM) | 25 to 100 | + (activity was measured to be greater than 5.0 μM)
13 | O=C(c1ccccc1)N1CCC(N2CCC3(CC2)c2ccccc2C(=O)N3Cc2ccccc2)CC1 [compound 42] | < 25 | + (activity was measured to be greater than 5.0 μM) | < 25 | + (activity was measured to be greater than 5.0 μM)
14 | CC(=O)N1Cc2ccccc2C2(CCN(CC3CCN(C(=O)O[C@@H]4CCOC4)CC3)CC2)C1 [compound 45] | < 25 | + (activity was measured to be greater than 5.0 μM) | < 25 | + (activity was measured to be greater than 5.0 μM)
15 | CCOC(=O)N1CCC(N2CCC3(CC2)CN(C(=O)c2ccno2)Cc2ccccc23)CC1 [compound 46] | 25 to 100 | +++ (activity was measured to be less than 1.0 μM) | 25 to 100 | +++ (activity was measured to be less than 1.0 μM)
16 | CN(C)C(=O)N1Cc2ccccc2C2(CCN(C3CC4CCC(C3)N4C(=O)O[C@@H]3CCOC3)CC2)C1 (stereo partly drawn) [compound 48, (R)-tetrahydrofuran-3-yl 3-(2-(dimethylcarbamoyl)-2,3-dihydro-1H -spiro[isoquinoline-4,4′-piperidine]-1′-yl)-8-azabicyclo[3.2.1]octane-8-carboxylate] | 25 to 100 | +++ (activity was measured to be less than 1.0 μM) | 25 to 100 | +++ (activity was measured to be less than 1.0 μM)
17 | COC(=O)N1CC(CN2CCC3(CC2)CN(C(C)=O)Cc2ccccc23)C1 [compound 50] | < 25 | + (activity was measured to be greater than 5.0 μM) | < 25 | + (activity was measured to be greater than 5.0 μM)
18 | CCOC(=O)N1CCC(CN2CCC3(CC2)CN(C(=O)Nc2ccccc2)Cc2ccccc23)CC1 [compound 51] | 25 to 100 | +++ (activity was measured to be less than 1.0 μM) | 25 to 100 | +++ (activity was measured to be less than 1.0 μM)
19 | O=C1c2ccccc2C2(CCN(CC3CCCCC3)CC2)N1Cc1ccccc1 [compound 52] | < 25 | + (activity was measured to be greater than 5.0 μM) | 25 to 100 | + (activity was measured to be greater than 5.0 μM)
